Source: ChEMBL document CHEMBL5346859, “Dual-target Janus kinase (JAK) inhibitors: Comprehensive review on the JAK-based strategies for treating solid or hematological malignancies and immune-related diseases” (Eur J Med Chem, 2022)

Assays:
[1] = target: T1, Tyrosine-protein kinase JAK1 (Homo sapiens, UniProt P23458); experiment: Inhibition of recombinant GST-tagged JAK1 catalytic domain (unknown origin) using pEY (4:1) as substrate incubated for 120 mins in presence of 33P-labeled ATP
[2] = target: T2, Tyrosine-protein kinase JAK2 (Homo sapiens, UniProt O60674); experiment: Inhibition of recombinant GST-tagged JAK2 catalytic domain (unknown origin) using pEY (4:1) as substrate incubated for 120 mins in presence of 33P-labeled ATP
T2 sequence (O60674 whole entry, the tested form may be a part): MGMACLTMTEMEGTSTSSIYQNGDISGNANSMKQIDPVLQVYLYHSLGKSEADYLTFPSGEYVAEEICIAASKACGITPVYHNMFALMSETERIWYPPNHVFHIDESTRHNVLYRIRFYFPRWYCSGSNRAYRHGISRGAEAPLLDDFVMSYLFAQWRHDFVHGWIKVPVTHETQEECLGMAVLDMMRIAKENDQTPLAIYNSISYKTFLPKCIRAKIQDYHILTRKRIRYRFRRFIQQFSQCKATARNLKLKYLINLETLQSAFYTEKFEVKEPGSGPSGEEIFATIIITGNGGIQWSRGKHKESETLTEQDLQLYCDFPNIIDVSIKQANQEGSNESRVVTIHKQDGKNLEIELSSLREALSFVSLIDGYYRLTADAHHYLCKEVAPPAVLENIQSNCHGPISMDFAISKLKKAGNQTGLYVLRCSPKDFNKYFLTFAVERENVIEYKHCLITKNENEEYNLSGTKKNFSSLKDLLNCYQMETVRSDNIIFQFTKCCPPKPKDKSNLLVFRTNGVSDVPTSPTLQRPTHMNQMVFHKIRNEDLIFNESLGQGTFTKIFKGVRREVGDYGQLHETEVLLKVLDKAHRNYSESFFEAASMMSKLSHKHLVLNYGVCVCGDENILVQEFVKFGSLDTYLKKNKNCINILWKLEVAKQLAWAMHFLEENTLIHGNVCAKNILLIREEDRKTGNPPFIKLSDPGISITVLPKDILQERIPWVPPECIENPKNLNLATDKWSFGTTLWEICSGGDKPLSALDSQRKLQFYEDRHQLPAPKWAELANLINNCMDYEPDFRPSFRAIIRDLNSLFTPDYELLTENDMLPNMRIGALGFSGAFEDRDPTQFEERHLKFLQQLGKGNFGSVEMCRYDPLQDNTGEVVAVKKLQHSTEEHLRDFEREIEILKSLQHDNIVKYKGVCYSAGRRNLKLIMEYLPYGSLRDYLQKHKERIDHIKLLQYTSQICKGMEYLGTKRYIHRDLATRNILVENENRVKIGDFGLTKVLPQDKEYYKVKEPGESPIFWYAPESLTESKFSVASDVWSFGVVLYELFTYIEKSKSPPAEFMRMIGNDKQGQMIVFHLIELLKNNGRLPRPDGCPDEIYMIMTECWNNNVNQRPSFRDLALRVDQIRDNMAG

[3] = target: T3, Non-receptor tyrosine-protein kinase TYK2 (Homo sapiens, UniProt P29597); experiment: Inhibition of recombinant GST-tagged TYK2 catalytic domain (unknown origin) using pEY (4:1) as substrate incubated for 120 mins in presence of 33P-labeled ATP
T3 sequence (P29597 whole entry, the tested form may be a part): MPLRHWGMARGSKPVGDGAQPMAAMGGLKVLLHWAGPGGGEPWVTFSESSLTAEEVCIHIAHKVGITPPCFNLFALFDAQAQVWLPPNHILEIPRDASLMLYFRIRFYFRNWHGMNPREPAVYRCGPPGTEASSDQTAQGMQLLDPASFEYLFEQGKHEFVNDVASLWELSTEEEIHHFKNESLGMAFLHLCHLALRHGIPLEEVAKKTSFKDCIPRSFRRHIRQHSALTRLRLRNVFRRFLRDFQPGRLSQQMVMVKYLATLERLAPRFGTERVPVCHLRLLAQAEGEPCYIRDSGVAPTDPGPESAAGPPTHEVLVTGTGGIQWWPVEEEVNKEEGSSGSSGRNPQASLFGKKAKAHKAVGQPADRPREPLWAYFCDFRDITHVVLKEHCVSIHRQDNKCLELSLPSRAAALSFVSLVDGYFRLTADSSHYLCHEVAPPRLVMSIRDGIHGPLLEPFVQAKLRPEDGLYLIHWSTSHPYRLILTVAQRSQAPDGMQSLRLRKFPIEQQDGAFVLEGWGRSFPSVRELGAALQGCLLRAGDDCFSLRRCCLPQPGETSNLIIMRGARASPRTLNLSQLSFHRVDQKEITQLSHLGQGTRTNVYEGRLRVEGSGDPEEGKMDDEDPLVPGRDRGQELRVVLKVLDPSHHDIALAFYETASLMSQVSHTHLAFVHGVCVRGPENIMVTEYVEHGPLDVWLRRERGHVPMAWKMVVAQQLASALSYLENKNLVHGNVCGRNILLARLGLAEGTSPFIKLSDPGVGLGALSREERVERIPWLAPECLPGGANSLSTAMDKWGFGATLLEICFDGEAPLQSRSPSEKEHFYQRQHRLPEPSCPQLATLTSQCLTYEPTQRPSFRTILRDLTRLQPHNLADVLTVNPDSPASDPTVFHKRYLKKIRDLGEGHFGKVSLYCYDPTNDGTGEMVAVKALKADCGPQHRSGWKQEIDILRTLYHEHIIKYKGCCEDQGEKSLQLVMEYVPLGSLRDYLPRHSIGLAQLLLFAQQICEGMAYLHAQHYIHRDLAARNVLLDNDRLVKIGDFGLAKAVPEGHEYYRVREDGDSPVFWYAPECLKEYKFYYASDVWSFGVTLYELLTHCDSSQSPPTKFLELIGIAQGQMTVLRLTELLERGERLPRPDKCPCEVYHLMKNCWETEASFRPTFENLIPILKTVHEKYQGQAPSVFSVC

[4] = target: Proto-oncogene tyrosine-protein kinase Src (Homo sapiens, UniProt P12931); experiment: Inhibition of recombinant GST-tagged c-Src catalytic domain (unknown origin) using pEY (4:1) as substrate incubated for 120 mins in presence of 33P-labeled ATP
A2058 = experiment: Antitumor activity against human A2058 cells xenografted in NSG mouse assessed as tumor growth inhibition at 25 mg/kg, po administered twice daily for 18 days relative to control; type: functional; conditions: A2058, 432 h, time 18 day, read-out: TGI
[5] = target: Mitogen-activated protein kinase kinase kinase 9 (Homo sapiens, UniProt P80192); experiment: Inhibition of MLK1 (unknown origin)
[6] = target: Macrophage colony-stimulating factor 1 receptor (Homo sapiens, UniProt P07333); experiment: Inhibition of FMS (unknown origin)
[7] = target: Serine/threonine-protein kinase MARK1 (Homo sapiens, UniProt Q9P0L2); experiment: Inhibition of MARK1 (unknown origin)
[8] = target: Serine/threonine-protein kinase MARK2 (Homo sapiens, UniProt Q7KZI7); experiment: Inhibition of PAR1B-a (unknown origin)
[9] = target: Serine/threonine-protein kinase 3 (Homo sapiens, UniProt Q13188); experiment: Inhibition of MST2 (unknown origin)
Serine/threonine-protein kinase 3, sequence (Q13188 whole entry): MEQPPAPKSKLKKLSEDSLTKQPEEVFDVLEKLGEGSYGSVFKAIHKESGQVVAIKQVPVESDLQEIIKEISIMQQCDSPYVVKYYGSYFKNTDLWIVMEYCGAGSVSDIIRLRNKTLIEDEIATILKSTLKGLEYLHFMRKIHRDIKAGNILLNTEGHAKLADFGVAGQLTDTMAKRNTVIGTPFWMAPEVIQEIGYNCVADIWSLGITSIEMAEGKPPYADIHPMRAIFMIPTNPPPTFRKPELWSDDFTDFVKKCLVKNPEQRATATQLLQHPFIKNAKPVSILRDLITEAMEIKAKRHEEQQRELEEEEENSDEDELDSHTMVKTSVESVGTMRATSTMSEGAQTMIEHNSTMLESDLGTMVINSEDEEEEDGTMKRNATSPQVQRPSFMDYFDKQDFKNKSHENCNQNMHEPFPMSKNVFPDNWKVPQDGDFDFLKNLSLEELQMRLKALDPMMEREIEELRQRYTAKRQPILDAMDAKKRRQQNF

[10] = target: Mitogen-activated protein kinase kinase kinase kinase 2 (Homo sapiens, UniProt Q12851); experiment: Inhibition of GCK (unknown origin)
[11] = target: Ribosomal protein S6 kinase alpha-3 (Homo sapiens, UniProt P51812); experiment: Inhibition of RSK2 (unknown origin)
[12] = target: Ribosomal protein S6 kinase alpha-6 (Homo sapiens, UniProt Q9UK32); experiment: Inhibition of RSK4 (unknown origin)
[13] = target: Serine/threonine-protein kinase Chk1 (Homo sapiens, UniProt O14757); experiment: Inhibition of CHK1 (unknown origin)
[14] = target: Vascular endothelial growth factor receptor 3 (Homo sapiens, UniProt P35916); experiment: Inhibition of FLT4 (unknown origin)
[15] = target: Proto-oncogene tyrosine-protein kinase receptor Ret (Homo sapiens, UniProt P07949); experiment: Inhibition of RET (unknown origin)
Proto-oncogene tyrosine-protein kinase receptor Ret, sequence (P07949 whole entry): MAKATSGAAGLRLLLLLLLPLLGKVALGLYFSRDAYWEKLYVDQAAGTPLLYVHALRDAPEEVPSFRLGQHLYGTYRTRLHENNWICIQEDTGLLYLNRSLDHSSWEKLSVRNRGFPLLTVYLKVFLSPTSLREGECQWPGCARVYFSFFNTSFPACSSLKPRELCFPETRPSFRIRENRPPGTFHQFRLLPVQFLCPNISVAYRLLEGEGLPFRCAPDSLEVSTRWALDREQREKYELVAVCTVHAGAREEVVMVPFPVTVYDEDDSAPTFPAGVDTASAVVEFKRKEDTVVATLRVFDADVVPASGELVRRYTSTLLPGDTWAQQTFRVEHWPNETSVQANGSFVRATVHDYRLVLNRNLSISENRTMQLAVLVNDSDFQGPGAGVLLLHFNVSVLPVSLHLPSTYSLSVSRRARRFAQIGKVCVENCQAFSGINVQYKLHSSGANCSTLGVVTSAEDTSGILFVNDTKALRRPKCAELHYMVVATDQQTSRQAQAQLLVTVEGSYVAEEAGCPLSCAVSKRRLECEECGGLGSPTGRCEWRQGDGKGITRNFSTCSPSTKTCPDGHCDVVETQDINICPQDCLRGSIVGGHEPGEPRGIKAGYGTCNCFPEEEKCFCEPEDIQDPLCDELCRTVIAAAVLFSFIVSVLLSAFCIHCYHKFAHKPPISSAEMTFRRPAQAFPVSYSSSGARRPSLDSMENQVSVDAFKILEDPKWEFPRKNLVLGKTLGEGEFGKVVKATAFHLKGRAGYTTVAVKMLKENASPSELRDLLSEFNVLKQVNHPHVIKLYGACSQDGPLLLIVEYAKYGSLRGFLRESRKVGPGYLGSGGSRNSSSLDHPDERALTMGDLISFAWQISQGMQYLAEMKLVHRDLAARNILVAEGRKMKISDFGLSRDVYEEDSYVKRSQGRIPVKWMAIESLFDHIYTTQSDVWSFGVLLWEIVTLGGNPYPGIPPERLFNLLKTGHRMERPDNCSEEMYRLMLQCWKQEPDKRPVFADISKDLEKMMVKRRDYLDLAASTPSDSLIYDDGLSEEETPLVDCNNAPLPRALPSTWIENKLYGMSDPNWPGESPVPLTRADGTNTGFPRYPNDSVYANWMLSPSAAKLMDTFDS

[16] = target: Tyrosine-protein kinase ITK/TSK (Homo sapiens, UniProt Q08881); experiment: Inhibition of ITK (unknown origin)
[17] = Inhibition of JAK/STAT signaling pathway in human CD4+ve Th cells assessed as inhibition of IL-2 stimulated STAT5 phosphorylation at Y694 residue preincubated for 1 hr followed by IL-2 stimulation and measured after 15 mins by flow cytometry analysis; type: cell-based
[18] = Inhibition of JAK/STAT signaling pathway in human CD8-positive T cells assessed as inhibition of IL-2 stimulated STAT5 phosphorylation at Y694 residue preincubated for 1 hr followed by IL-2 stimulation and measured after 15 mins by flow cytometry analysis; type: cell-based; conditions: CD8-positive T cell
[19] = Inhibition of JAK/STAT signaling pathway in human CD4+ve Th cells assessed as inhibition of IL-4 stimulated STAT6 phosphorylation at Y641 residue preincubated for 1 hr followed by IL-4 stimulation and measured after 15 mins by flow cytometry analysis; type: cell-based
[20] = Inhibition of JAK/STAT signaling pathway in human CD8-positive T cells assessed as inhibition of IL-4 stimulated STAT6 phosphorylation at Y641 residue preincubated for 1 hr followed by IL-4 stimulation and measured after 15 mins by flow cytometry analysis; type: cell-based; conditions: CD8-positive T cell
[21] = Inhibition of JAK/STAT signaling pathway in human CD14 positive monocytes assessed as inhibition of IL-4 stimulated STAT6 phosphorylation at Y641 residue preincubated for 1 hr followed by IL-4 stimulation and measured after 15 mins by flow cytometry analysis; type: cell-based
[22] = Inhibition of JAK/STAT signaling pathway in human CD19 positive B cells assessed as inhibition of IL-4 stimulated STAT6 phosphorylation at Y641 residue preincubated for 1 hr followed by IL-4 stimulation and measured after 15 mins by flow cytometry analysis; type: cell-based; conditions: CD19 positive B cell
[23] = Inhibition of JAK/STAT signaling pathway in human CD14 positive monocytes assessed as inhibition of IL-6 stimulated STAT3 phosphorylation at Y705 residue preincubated for 1 hr followed by IL-6 stimulation and measured after 15 mins by flow cytometry analysis; type: cell-based
[24] = Inhibition of JAK/STAT signaling pathway in human CD14 positive monocytes assessed as inhibition of GM-CSF stimulated STAT5 phosphorylation at Y694 residue preincubated for 1 hr followed by GM-CSF stimulation and measured after 15 mins by flow cytometry analysis; type: cell-based
[25] = Cytotoxicity against human CLL cells assessed inhibition of cell growth incubated for 72 hrs by propidium iodide staining based flow cytometry analysis; type: functional
[26] = target: T4, Receptor-type tyrosine-protein kinase FLT3 (Homo sapiens, UniProt P36888)
T4 sequence (P36888 whole entry): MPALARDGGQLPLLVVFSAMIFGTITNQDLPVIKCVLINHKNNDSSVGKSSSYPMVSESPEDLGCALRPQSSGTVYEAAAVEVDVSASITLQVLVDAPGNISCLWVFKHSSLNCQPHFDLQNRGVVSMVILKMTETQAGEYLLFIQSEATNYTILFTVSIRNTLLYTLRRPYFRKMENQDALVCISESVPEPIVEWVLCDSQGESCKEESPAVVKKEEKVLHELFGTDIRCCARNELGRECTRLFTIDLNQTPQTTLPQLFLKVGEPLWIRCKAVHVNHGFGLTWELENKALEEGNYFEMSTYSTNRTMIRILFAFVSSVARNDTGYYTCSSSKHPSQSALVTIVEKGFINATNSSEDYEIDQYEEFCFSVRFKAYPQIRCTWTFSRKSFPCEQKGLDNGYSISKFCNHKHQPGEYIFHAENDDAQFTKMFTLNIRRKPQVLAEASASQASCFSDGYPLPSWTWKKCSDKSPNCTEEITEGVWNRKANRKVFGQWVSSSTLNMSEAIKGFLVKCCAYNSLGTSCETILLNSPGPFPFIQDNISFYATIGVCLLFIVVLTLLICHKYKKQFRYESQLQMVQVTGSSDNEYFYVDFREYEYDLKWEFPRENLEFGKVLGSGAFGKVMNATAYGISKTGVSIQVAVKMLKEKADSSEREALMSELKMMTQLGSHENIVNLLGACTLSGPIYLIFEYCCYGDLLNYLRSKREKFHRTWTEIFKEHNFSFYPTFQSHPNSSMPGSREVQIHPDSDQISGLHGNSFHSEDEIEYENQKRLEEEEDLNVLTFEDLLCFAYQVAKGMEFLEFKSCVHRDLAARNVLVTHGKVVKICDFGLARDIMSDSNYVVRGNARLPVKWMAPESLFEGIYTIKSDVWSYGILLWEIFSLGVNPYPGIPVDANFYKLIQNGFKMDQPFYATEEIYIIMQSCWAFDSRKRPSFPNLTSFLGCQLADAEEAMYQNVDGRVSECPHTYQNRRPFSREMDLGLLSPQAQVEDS

[27] = target: Tyrosine-protein kinase Tec (Homo sapiens, UniProt P42680); experiment: Inhibition of TEC (unknown origin) in presence of ATP
[28] = target: T1, Tyrosine-protein kinase JAK1; experiment: Inhibition of JAK1 (unknown origin) by flow cytometry analysis
[29] = target: T2, Tyrosine-protein kinase JAK2; experiment: Inhibition of JAK2 (unknown origin) by flow cytometry analysis
[30] = target: Tyrosine-protein kinase JAK3 (Homo sapiens, UniProt P52333); experiment: Inhibition of JAK3 (unknown origin) by flow cytometry analysis
[31] = target: T3, Non-receptor tyrosine-protein kinase TYK2; experiment: Inhibition of TYK2 (unknown origin) by flow cytometry analysis
[32] = target: Tyrosine-protein kinase SYK (Homo sapiens, UniProt P43405); experiment: Inhibition of SYK (unknown origin) by flow cytometry analysis
[33] = target: T2, Tyrosine-protein kinase JAK2; experiment: Inhibition of JAK2 (unknown origin) using FAM-labeled peptide as substrate preincubated with compound for 10 mins followed by substrate addition and measured after 60 mins in presence of ATP
[34] = target: T4, Receptor-type tyrosine-protein kinase FLT3; experiment: Inhibition of FLT3 (unknown origin) using FAM-labeled peptide as substrate preincubated with compound for 10 mins followed by substrate addition and measured after 60 mins in presence of ATP

T1 sequence (P23458 whole entry, the tested form may be a part): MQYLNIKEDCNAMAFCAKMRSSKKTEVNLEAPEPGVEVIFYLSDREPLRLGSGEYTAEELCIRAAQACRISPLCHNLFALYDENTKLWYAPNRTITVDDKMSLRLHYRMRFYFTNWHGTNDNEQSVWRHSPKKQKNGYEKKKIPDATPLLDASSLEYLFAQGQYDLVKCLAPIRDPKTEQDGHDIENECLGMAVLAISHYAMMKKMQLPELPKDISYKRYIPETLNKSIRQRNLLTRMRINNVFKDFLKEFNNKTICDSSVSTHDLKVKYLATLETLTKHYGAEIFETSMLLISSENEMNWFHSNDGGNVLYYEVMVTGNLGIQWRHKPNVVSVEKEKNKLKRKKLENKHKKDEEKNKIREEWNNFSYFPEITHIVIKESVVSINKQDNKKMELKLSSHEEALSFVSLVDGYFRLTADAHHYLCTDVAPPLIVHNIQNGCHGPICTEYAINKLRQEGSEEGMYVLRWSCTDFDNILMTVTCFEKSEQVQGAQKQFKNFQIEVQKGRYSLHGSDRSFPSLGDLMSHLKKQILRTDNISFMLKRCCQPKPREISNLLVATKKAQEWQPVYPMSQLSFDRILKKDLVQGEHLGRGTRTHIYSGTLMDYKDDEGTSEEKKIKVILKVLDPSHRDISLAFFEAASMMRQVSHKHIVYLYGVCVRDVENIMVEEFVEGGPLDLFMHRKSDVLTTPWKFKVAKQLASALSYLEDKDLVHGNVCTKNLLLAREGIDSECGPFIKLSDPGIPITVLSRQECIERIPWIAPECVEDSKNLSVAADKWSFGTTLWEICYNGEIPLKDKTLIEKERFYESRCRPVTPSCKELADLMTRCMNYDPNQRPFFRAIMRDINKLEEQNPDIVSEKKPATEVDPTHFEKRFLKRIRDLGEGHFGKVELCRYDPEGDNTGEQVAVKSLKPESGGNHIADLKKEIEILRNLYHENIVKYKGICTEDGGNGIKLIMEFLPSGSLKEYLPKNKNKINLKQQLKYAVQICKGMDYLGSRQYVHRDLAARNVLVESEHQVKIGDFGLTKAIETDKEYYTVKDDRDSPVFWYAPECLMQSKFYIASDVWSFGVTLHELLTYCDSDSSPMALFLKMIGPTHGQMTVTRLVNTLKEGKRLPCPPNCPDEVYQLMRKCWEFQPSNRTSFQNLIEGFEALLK

O=C1Nc2cc(Br)ccc2/C1=C1/Nc2ccccc2/C1=N\OCCN1CCNCC1
IC50 [1]: 600 nM | IC50 [2]: 28 nM | IC50 [3]: 50 nM | IC50 [4]: 0.2 nM | inhibition in vivo at 25 mg/kg (A2058): 50%

O=C1Nc2c(Br)cccc2/C1=C1/Nc2ccccc2/C1=N\OCCN1CCNCC1
IC50 [2]: > 10000 nM

CCS(=O)(=O)N1CCN(c2ccc(Nc3ncc(C(N)=O)c(NC4CC4)n3)cc2)CC1 [CERDULATINIB]
IC50 [5]: 4 nM | IC50 [6]: 4 nM | IC50 [7]: 4 nM | IC50 [8]: 4 nM | IC50 [9]: 4 nM | IC50 [10]: 4 nM | IC50 [11]: 4 nM | IC50 [12]: 4 nM | IC50 [13]: 4 nM | IC50 [14]: 4 nM | IC50 [15]: 4 nM | IC50 [16]: 4 nM | IC50 [17]: < 1000 nM | IC50 [18]: < 1000 nM | IC50 [19]: < 1000 nM | IC50 [20]: < 1000 nM | IC50 [21]: < 1000 nM | IC50 [22]: < 1000 nM | IC50 [23]: < 1000 nM | IC50 [24]: > 4000 nM | IC50 [25]: 370 nM | IC50 [26]: 4 nM

C=CC(=O)N1C[C@H](Nc2ncnc3[nH]ccc23)CC[C@@H]1C [RITLECITINIB]
IC50 [27]: 155 nM

N#CCC1CCN(c2nc(Nc3ccc(N4CCC(O)CC4)cc3)c3c(=O)[nH]ncc3n2)CC1 [GUSACITINIB]
IC50 [28]: 46 nM | IC50 [29]: 4 nM | IC50 [30]: 11 nM | IC50 [31]: 8 nM | IC50 [32]: 5 nM

CC(=O)c1ccc(NC(=O)N2CCN(c3ccnc(Nc4ccc(N5CCOCC5)cc4)n3)CC2)cc1
IC50 [33]: 2.9 nM | IC50 [34]: 1.4 nM
